pIC50: −log10 of the molar value.

The source of these data is US20250059179A1, “Heterocyclic Compounds and Methods of Use” (AMGEN INC., priority 2021, published 2025).

Assay [1] addresses His-tagged KRAS G12D protein (Homo sapiens, UniProt P01116, G12D). Description: KRAS G12D TR-FRET Assay.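 Note: europium anti-His antibody paired with streptavidin-d2 as FRET partners, initial 30 min incubation, then peptide 1 h and detection reagents 1 h, all at room temperature.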 Type of assay: binding. Conditions: biotinylated KRPep-2d substrate, 10 μM GDP. On the technique in general: TR-FRET usually uses a lanthanide donor and a delayed reading to cut background.
For assay [2], the target named is GDP-bound KRAS protein (aa 1-169), containing both G12D and C118A amino acid substitutions (Homo sapiens, UniProt P01116, C118A/G12D). Description: KRAS G12D Coupled Nucleotide Exchange Assay.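 Note: IC50 obtained by fitting the AlphaScreen signal with a four-parameter logistic curve.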 The settings on record: 2 h compound pre-incubation; SOS-mediated nucleotide exchange, cRAF AlphaScreen readout. Type of assay: biochemical. On the technique in general: Bead proximity is the source of the signal in Alpha formats.
GDP-bound KRAS protein (aa 1-169), containing both G12D and C118A amino acid substitutions, sequence (P01116 1-169 isoform P01116-2 G12D/C118A): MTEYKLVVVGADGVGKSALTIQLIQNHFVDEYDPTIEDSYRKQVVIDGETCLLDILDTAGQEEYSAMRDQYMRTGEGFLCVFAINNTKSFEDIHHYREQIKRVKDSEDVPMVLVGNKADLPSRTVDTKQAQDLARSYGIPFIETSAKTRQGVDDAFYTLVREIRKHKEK

His-tagged KRAS G12D protein, sequence (P01116 1-188 isoform P01116-2 G12D): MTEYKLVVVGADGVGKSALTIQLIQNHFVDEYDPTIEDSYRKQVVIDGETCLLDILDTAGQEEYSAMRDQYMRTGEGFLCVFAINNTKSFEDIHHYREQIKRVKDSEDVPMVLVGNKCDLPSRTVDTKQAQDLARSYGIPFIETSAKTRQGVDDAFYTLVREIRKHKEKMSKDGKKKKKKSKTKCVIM

Take `Nc1nc2c(-c3c(Cl)cc4c(N5CCNCC5)nc(OC[C@@H]5CCC(=O)N5)nc4c3F)cccc2s1` [Example 68, (5S)-5-(((7-(2-aminobenzo[d]thiazol-4-yl)-6-chloro-8-fluoro-4-(piperazin-1-yl)quinazolin-2-yl)oxy)methyl) pyrrolidin-2-one]: in assay [1], the negative logarithm of the IC50 (pIC50) (usually −log10 of the IC50, conventionally taken in molar units) was 6.08. Besides, the “Avg 2 h Coupled Exchange IC50” value in assay [2] turned out to be 718 nM.

`C[C@H](CN(C)C)Oc1nc(N2CCNCC2)c2cc(Cl)c(-c3cccc4sc(N)nc34)c(F)c2n1` [Example 69, 4-(6-chloro-2-(((R)-1-(dimethylamino)propan-2-yl)oxy)-8-fluoro-4-(piperazin-1-yl)quinazolin-7-yl)benzo[d] thiazol-2-amine] gave a pIC50 in assay [1] of 5.11. Moreover, in assay [2], the “Avg 2 h Coupled Exchange IC50” value is 1890 nM.

The compound `CN1CC(F)(F)C[C@H]1COc1nc(N2CCNCC2)c2cc(Cl)c(-c3cccc4sc(N)nc34)c(F)c2n1` [Example 65, 4-(6-chloro-2-(((S)-4,4-difluoro-1-methyl-pyrrolidin-2-yl)methoxy)-8-fluoro-4-(piperazin-1-yl)quinazolin-7-yl)benzo[d] thiazol-2-amine] showed a pIC50 in assay [1] of 5.74. Besides, the “Avg 2 h Coupled Exchange IC50” value in assay [2] is 504 nM.

In the case of `Cc1c(-c2ccc(F)c3sc(N)nc23)ccc2c(N3C[C@H]4CC[C@@H](C3)N4)nc(OC[C@@]34CCCN3C[C@H](F)C4)nc12` [Example 139, 4-(4-((1R,5S)-3,8-diazabicyclo[3.2.1]octan-3-yl)-2-(((2R,7aS)-2-fluorotetrahydro-1H-pyrrolizin-7a(5H)-yl)methoxy)-8-methylquinazolin-7-yl)-7-fluorobenzo[d]thiazol-2-amine], the pIC50 in assay [1] was 7.96. Besides, the “Avg 2 h Coupled Exchange IC50” value in assay [2] came out at 3 nM.

The compound `C[C@@H](CN(C)C)Oc1nc(N2CCNCC2)c2cc(Cl)c(-c3cccc4sc(N)nc34)c(F)c2n1` [Example 48, 4-(6-chloro-2-(((S)-1-(dimethylamino)propan-2-yl)oxy)-8-fluoro-4-(piperazin-1-yl)quinazolin-7-yl)benzo[d] thiazol-2-amine] gave a pIC50 in assay [1] of 6.80. Moreover, in assay [2], the “Avg 2 h Coupled Exchange IC50” value was determined as 26 nM.

`CN1CCC[C@H]1COc1nc(N2C[C@H]3CC[C@@H]2CN3)c2cc(Cl)c(-c3cccc4sc(N)nc34)c(F)c2n1` [Example 27, 4-(4-((1R,4R)-2,5-diazabicyclo[2.2.2]octan-2-yl)-6-chloro-8-fluoro-2-(((S)-1-methylpyrrolidin-2-yl)methoxy)quinazolin-7-yl)benzo[d]thiazol-2-amine] gave a pIC50 in assay [1] of 5.92. Also, the “Avg 2 h Coupled Exchange IC50” value in assay [2] was 429 nM.

With `Nc1nc2c(-c3c(Cl)cc4c(N5CCNCC5)nc(OCC56CCCN5CCC6)nc4c3F)ccc(F)c2s1` [Example 8, 4-(6-chloro-8-fluoro-4-(piperazin-1-yl)-2-((tetrahydro-1H-pyrrolizin-7a(5H)-yl)methoxy)quinazolin-7-yl)-7-fluorobenzo[d] thiazol-2-amine], the pIC50 in assay [1] is 8.05. Further, in assay [2], the “Avg 2 h Coupled Exchange IC50” value worked out at 7 nM.

In the case of `Nc1nc2c(-c3c(Cl)cc4c(N5CCNC(=O)CC5)nc(OCC56CCCN5CCC6)nc4c3F)ccc(F)c2s1` [Example 13, 1-(7-(2-amino-7-fluorobenzo [d]thiazol-4-yl)-6-chloro-8-fluoro-2-((tetrahydro-1H-pyrrolizin-7a(5H)-yl)methoxy)quinazolin-4-yl)-1,4-diazepan-5-one], the pIC50 in assay [1] was 7.66. The “Avg 2 h Coupled Exchange IC50” value in assay [2] stood at 14 nM.

Consider `CN1CCC[C@H]1COc1nc(N2CCCNCC2)c2cc(Cl)c(-c3cccc4sc(N)nc34)c(F)c2n1` [Example 17, 4-(6-chloro-4-(1,4-diazepan-1-yl)-8-fluoro-2-(((S)-1-methylpyrrolidin-2-yl)methoxy)quinazolin-7-yl)benzo[d] thiazol-2-amine], for which, in assay [1], the pIC50 was 6.87. Also, the “Avg 2 h Coupled Exchange IC50” value in assay [2] stood at 30 nM.

In assay [1], `CN1CCC[C@H]1COc1nc(N2CCNCC2)c2cc(C#N)c(-c3cccc4sc(N)nc34)c(F)c2n1` [Example 156, 7-(2-Aminobenzo[d]thiazol-4-yl)-8-fluoro-2-(((S)-1-methylpyrrolidin-2-yl)methoxy)-4-(piperazin-1-yl)quinazoline-6-carbonitrile] had a negative logarithm of the IC50 (pIC50) of 6.44. Further, the “Avg 2 h Coupled Exchange IC50” value in assay [2] was 189 nM.

`CN1CCC[C@H]1CNc1nc(N2CCNCC2)c2cc(Cl)c(-c3cccc4sc(N)nc34)c(F)c2n1` [Example 70, 4-(6-chloro-8-fluoro-2-((((S)-1-methyl-pyrrolidin-2-yl)methyl)amino)-4-(piperazin-1-yl)quinazolin-7-yl)benzo[d] thiazol-2-amine] had a pIC50 in assay [1] of 4.97. In assay [2], the “Avg 2 h Coupled Exchange IC50” value turned out to be 2140 nM.

Regarding `Cc1cc(-c2c(Cl)cc3c(N4CCNCC4)nc(OC[C@@H]4CCCN4C)nc3c2F)c2nc(N)sc2c1` [Example 129, 4-(6-chloro-8-fluoro-2-(((S)-1-methylpyrrolidin-2-yl)methoxy)-4-(piperazin-1-yl)quinazolin-7-yl)-6-methylbenzo[d]thiazol-2-amine], the pIC50 in assay [1] was 5.28. The “Avg 2 h Coupled Exchange IC50” value in assay [2] came to 1090 nM.

In assay [1], `Cc1cc2c(N3CCNCC3)nc(OC[C@@H]3CCCN3C)nc2c(F)c1-c1cccc2sc(N)nc12` [Example 155, 4-(8-Fluoro-6-methyl-2-(((S)-1-methylpyrrolidin-2-yl)methoxy)-4-(piperazin-1-yl)quinazolin-7-yl)benzo[d]thiazol-2-amine] showed a pIC50 of 6.73. Besides, in assay [2], the “Avg 2 h Coupled Exchange IC50” value was 40 nM.

In turn, `CN1CCC[C@H]1COc1nc(N2CCNC[C@@H]2CCO)c2cc(Cl)c(-c3cccc4sc(N)nc34)c(F)c2n1` [Example 36, 2-((2S)-1-(7-(2-aminobenzo[d]thiazol-4-yl)-6-chloro-8-fluoro-2-(((S)-1-methylpyrrolidin-2-yl)methoxy)quinazolin-4-yl)piperazin-2-yl)ethan-1-ol] had a pIC50 in assay [1] of 5.23. Besides, the “Avg 2 h Coupled Exchange IC50” value in assay [2] amounted to 2250 nM.

Turning to `CN1C[C@H](F)C[C@H]1COc1nc(N2C[C@H]3COC[C@@H](C2)N3)c2cc(Cl)c(-c3ccc(F)c4sc(N)nc34)c(F)c2n1` [Example 41, 4-(4-((1R,5S)-3-oxa-7,9-diazabicyclo[3.3.1]nonan-7-yl)-6-chloro-8-fluoro-2-(((2S,4R)-4-fluoro-1-methylpyrrolidin-2-yl)methoxy)quinazolin-7-yl)-7-fluorobenzo[d] thiazol-2-amine], the pIC50 in assay [1] was 7.10. Also, the “Avg 2 h Coupled Exchange IC50” value in assay [2] is 65 nM.

In assay [1], `CN1CCC[C@H]1COc1nc(N2CCNCC2)c2cc(F)c(-c3cccc4sc(N)nc34)c(F)c2n1` [Example 134, 4-(6,8-difluoro-2-(((S)-1-methylpyrrolidin-2-yl)methoxy)-4-(piperazin-1-yl)quinazolin-7-yl)benzo[d]thiazol-2-amine] gave a pIC50 of 5.62. Further, in assay [2], the “Avg 2 h Coupled Exchange IC50” value turned out to be 391 nM.

In assay [1], `CN1C[C@H](F)C[C@H]1COc1nc(N2CCNC(=O)CC2)c2cc(Cl)c(-c3ccc(F)c4sc(N)nc34)c(F)c2n1` [Example 21, 1-(7-(2-amino-7-fluorobenzo[d]thiazol-4-yl)-6-chloro-8-fluoro-2-(((2S,4R)-4-fluoro-1-methylpyrrolidin-2-yl)methoxy)quinazolin-4-yl)-1,4-diazepan-5-one] showed a pIC50 of 7.01. The “Avg 2 h Coupled Exchange IC50” value in assay [2] worked out at 67 nM.

As to `Nc1nc2c(-c3c(Cl)cc4c(N5CCNCC5)nc(OCC56CCCN5CCC6)nc4c3F)cccc2s1` [Example 44, 4-(6-chloro-8-fluoro-4-(piperazin-1-yl)-2-((tetrahydro-1H-pyrrolizin-7a(5H)-yl)methoxy)quinazolin-7-yl)benzo[d] thiazol-2-amine], in assay [1], the negative-log IC50 (pIC50) was 7.52. Also, the “Avg 2 h Coupled Exchange IC50” value in assay [2] was 14 nM.

In turn, `Nc1nc2c(-c3c(Cl)cc4c(N5CCNCC5)nc(OC[C@@H]5C[C@H](F)CN5)nc4c3F)cccc2s1` [Example 55, 4-(6-chloro-8-fluoro-2-(((2S,4S)-4-fluoro-pyrrolidin-2-yl)methoxy)-4-(piperazin-1-yl)quinazolin-7-yl)benzo[d] thiazol-2-amine] had a pIC50 in assay [1] of 6.55. In assay [2], the “Avg 2 h Coupled Exchange IC50” value was determined as 106 nM.

In the case of `CC(=O)N1CCC[C@H]1COc1nc(N2CCNCC2)c2cc(Cl)c(-c3cccc4sc(N)nc34)c(F)c2n1` [Example 71, 1-((2S)-2-(((7-(2-aminobenzo[d]thiazol-4-yl)-6-chloro-8-fluoro-4-(piperazin-1-yl)quinazolin-2-yl)oxy)methyl)pyrrolidin-1-yl)ethan-1-one], in assay [1], the pIC50 was 5.40. For the same compound, the “Avg 2 h Coupled Exchange IC50” value in assay [2] amounted to 2530 nM.

`Nc1nc2c(-c3c(F)cc4c(N5C[C@H]6CC[C@@H](C5)N6)nc(OC[C@@]56CCCN5C[C@H](F)C6)nc4c3F)ccc(F)c2s1` [Example 141, 4-(4-((1R,5S)-3,8-diazabicyclo [3.2.1]octan-3-yl)-6,8-difluoro-2-(((2R,7aS)-2-fluorotetrahydro-1H-pyrrolizin-7a(5H)-yl)methoxy)quinazolin-7-yl)-7-fluorobenzo[d]thiazol-2-amine] had a pIC50 in assay [1] of 8.70. Besides, in assay [2], the “Avg 2 h Coupled Exchange IC50” value worked out at 2 nM.

In the case of `CN1C[C@@H](F)C[C@H]1COc1nc(N2CCNCC2)c2cc(Cl)c(-c3cccc4sc(N)nc34)c(F)c2n1` [Example 62, 4-(6-chloro-8-fluoro-2-(((2S,4S)-4-fluoro-1-methyl-pyrrolidin-2-yl)methoxy)-4-(piperazin-1-yl)quinazolin-7-yl)benzo[d] thiazol-2-amine], the pIC50 in assay [1] was 6.17. In addition, the “Avg 2 h Coupled Exchange IC50” value in assay [2] turned out to be 394 nM.

The compound `CN1CCC[C@H]1COc1nc2c(F)c(-c3ccc(F)c4sc(N)nc34)c(Cl)cc2c(N2CCNCC2)c1C#N` [Example 157, 7-(2-Amino-7-fluorobenzo[d]thiazol-4-yl)-6-chloro-8-fluoro-2-(((S)-1-methylpyrrolidin-2-yl)methoxy)-4-(piperazin-1-yl)quinoline-3-carbonitrile] showed a pIC50 in assay [1] of 7.14. Further, in assay [2], the “Avg 2 h Coupled Exchange IC50” value worked out at 23 nM.
